Results from ChEMBL document CHEMBL3885881, “DrugMatrix”.

Species on record: Rattus norvegicus
Assay: DrugMatrix - Regimen: Daily Repeat
Format: toxicity, organism-based, Sprague-Dawley
Parameters: regimen Daily Repeat, gender Male, age 6-8 weeks
Conditions: in vivo, po, route oral GAVAGE, vehicle .5 % CMC; for ABSOLUTE BASOPHIL / ABSOLUTE EOSINOPHIL / ABSOLUTE LYMPHOCYTE / ABSOLUTE MONOCYTE / ABSOLUTE SEGMENTED NEUTROPHIL / BASOPHIL / EOSINOPHIL / ERYTHROCYTE COUNT / HEMATOCRIT / HEMOGLOBIN / LEUKOCYTE COUNT / LYMPHOCYTE / MEAN CORPUSCULAR HEMOGLOBIN / MEAN CORPUSCULAR HEMOGLOBIN CONCENTRATION / MEAN CORPUSCULAR VOLUME / MONOCYTE / NEUTROPHIL / NUCLEATED RED BLOOD CELLS / PLATELET COUNT: tissue Blood; for ALANINE AMINOTRANSFERASE / ALBUMIN / ALKALINE PHOSPHATASE / ASPARTATE AMINOTRANSFERASE / BLOOD UREA NITROGEN / CARBON DIOXIDE / CHLORIDE / CHOLESTEROL / CREATINE PHOSPHOKINASE / CREATININE / GLUCOSE / LACTATE DEHYDROGENASE / LIPASE / PHOSPHORUS / POTASSIUM / SODIUM / TOTAL BILIRUBIN / TOTAL PROTEIN / URIC ACID: tissue Plasma
[1] = 31 mg/kg, 72 h, dose level Low, time 3 day
[2] = 31 mg/kg, 120 h, dose level Low, time 5 day
[3] = 76 mg/kg, 72 h, dose level High, time 3 day
[4] = 76 mg/kg, 120 h, dose level High, time 5 day

## O=C1CN(/N=C/c2ccc([N+](=O)[O-])o2)C(=O)N1 [NITROFURANTOIN]
[1]
  ABSOLUTE BASOPHIL: 0 CELLS/uL
  ABSOLUTE EOSINOPHIL: 106.67 CELLS/uL
  ABSOLUTE LYMPHOCYTE: 13250.33 CELLS/uL
  ABSOLUTE MONOCYTE: 160 CELLS/uL
  ABSOLUTE SEGMENTED NEUTROPHIL: 1583 CELLS/uL
  BASOPHIL: 0%
  EOSINOPHIL: 0.67%
  ERYTHROCYTE COUNT: 5.65 x10E6/uL
  HEMATOCRIT: 35.43%
  HEMOGLOBIN: 13.47 G/DL
  LEUKOCYTE COUNT: 15.1 x10E3/uL
  LYMPHOCYTE: 88%
  MEAN CORPUSCULAR HEMOGLOBIN: 23.9 pg
  MEAN CORPUSCULAR HEMOGLOBIN CONCENTRATION: 38.03 G/DL
  MEAN CORPUSCULAR VOLUME: 62.77 fL
  MONOCYTE: 1%
  NEUTROPHIL: 10.33%
  NUCLEATED RED BLOOD CELLS: 0.33 /100WBC
  PLATELET COUNT: 1275.33 x10E3/uL
  ALANINE AMINOTRANSFERASE: 49.33 u/L
  ALBUMIN: 4.4 G/DL
  ALKALINE PHOSPHATASE: 440.67 u/L
  ASPARTATE AMINOTRANSFERASE: 85 u/L
  BLOOD UREA NITROGEN: 15.33 mg/dL
  CARBON DIOXIDE: 22.67 mmol/L
  CHLORIDE: 105.67 MEQ/L
  CHOLESTEROL: 74.67 mg/dL
  CREATINE PHOSPHOKINASE: 232.33 u/L
  CREATININE: 0.25 mg/dL
  GLUCOSE: 142.33 mg/dL
  LACTATE DEHYDROGENASE: 280 u/L
  LIPASE: 9.67 u/L
  PHOSPHORUS: 13.57 mg/dL
  POTASSIUM: 6.78 MEQ/L
  SODIUM: 147.27 MEQ/L
  TOTAL BILIRUBIN: 0.27 mg/dL
  TOTAL PROTEIN: 6.1 G/DL
  URIC ACID: 2.1 mg/dL
[2]
  ABSOLUTE BASOPHIL: 0 CELLS/uL
  ABSOLUTE EOSINOPHIL: 48 CELLS/uL
  ABSOLUTE LYMPHOCYTE: 14184 CELLS/uL
  ABSOLUTE MONOCYTE: 368 CELLS/uL
  ABSOLUTE SEGMENTED NEUTROPHIL: 1000 CELLS/uL
  BASOPHIL: 0%
  EOSINOPHIL: 0.33%
  ERYTHROCYTE COUNT: 5.46 x10E6/uL
  HEMATOCRIT: 34.3%
  HEMOGLOBIN: 13.23 G/DL
  LEUKOCYTE COUNT: 15.6 x10E3/uL
  LYMPHOCYTE: 90.67%
  MEAN CORPUSCULAR HEMOGLOBIN: 24.3 pg
  MEAN CORPUSCULAR HEMOGLOBIN CONCENTRATION: 38.57 G/DL
  MEAN CORPUSCULAR VOLUME: 62.93 fL
  MONOCYTE: 2.33%
  NEUTROPHIL: 6.67%
  NUCLEATED RED BLOOD CELLS: 0.33 /100WBC
  PLATELET COUNT: 1440 x10E3/uL
  ALANINE AMINOTRANSFERASE: 44.67 u/L
  ALBUMIN: 4.27 G/DL
  ALKALINE PHOSPHATASE: 262 u/L
  ASPARTATE AMINOTRANSFERASE: 72.33 u/L
  BLOOD UREA NITROGEN: 13.67 mg/dL
  CARBON DIOXIDE: 25.67 mmol/L
  CHLORIDE: 106.33 MEQ/L
  CHOLESTEROL: 58.33 mg/dL
  CREATINE PHOSPHOKINASE: 186 u/L
  CREATININE: 0.19 mg/dL
  GLUCOSE: 159 mg/dL
  LACTATE DEHYDROGENASE: 76.67 u/L
  LIPASE: 11.67 u/L
  PHOSPHORUS: 12.87 mg/dL
  POTASSIUM: 6.41 MEQ/L
  SODIUM: 147.13 MEQ/L
  TOTAL BILIRUBIN: 0.17 mg/dL
  TOTAL PROTEIN: 5.97 G/DL
  URIC ACID: 2.1 mg/dL
[3]
  ABSOLUTE BASOPHIL: 0 CELLS/uL
  ABSOLUTE EOSINOPHIL: 0 CELLS/uL
  ABSOLUTE LYMPHOCYTE: 13972.67 CELLS/uL
  ABSOLUTE MONOCYTE: 336.33 CELLS/uL
  ABSOLUTE SEGMENTED NEUTROPHIL: 1224.33 CELLS/uL
  BASOPHIL: 0%
  EOSINOPHIL: 0%
  ERYTHROCYTE COUNT: 5.83 x10E6/uL
  HEMATOCRIT: 38.1%
  HEMOGLOBIN: 13.73 G/DL
  LEUKOCYTE COUNT: 15.53 x10E3/uL
  LYMPHOCYTE: 89.33%
  MEAN CORPUSCULAR HEMOGLOBIN: 23.53 pg
  MEAN CORPUSCULAR HEMOGLOBIN CONCENTRATION: 36 G/DL
  MEAN CORPUSCULAR VOLUME: 65.37 fL
  MONOCYTE: 2.33%
  NEUTROPHIL: 8.33%
  NUCLEATED RED BLOOD CELLS: 0 /100WBC
  PLATELET COUNT: 1452.67 x10E3/uL
  ALANINE AMINOTRANSFERASE: 48.67 u/L
  ALBUMIN: 4.37 G/DL
  ALKALINE PHOSPHATASE: 355.67 u/L
  ASPARTATE AMINOTRANSFERASE: 77 u/L
  BLOOD UREA NITROGEN: 14.33 mg/dL
  CARBON DIOXIDE: 25 mmol/L
  CHLORIDE: 103.67 MEQ/L
  CHOLESTEROL: 77 mg/dL
  CREATINE PHOSPHOKINASE: 150 u/L
  CREATININE: 0.21 mg/dL
  GLUCOSE: 208.33 mg/dL
  LACTATE DEHYDROGENASE: 99 u/L
  LIPASE: 9.67 u/L
  PHOSPHORUS: 13.23 mg/dL
  POTASSIUM: 6.13 MEQ/L
  SODIUM: 146.97 MEQ/L
  TOTAL BILIRUBIN: 0.23 mg/dL
  TOTAL PROTEIN: 6.1 G/DL
  URIC ACID: 2.37 mg/dL
[4]
  ABSOLUTE BASOPHIL: 0 CELLS/uL
  ABSOLUTE EOSINOPHIL: 34.67 CELLS/uL
  ABSOLUTE LYMPHOCYTE: 10550 CELLS/uL
  ABSOLUTE MONOCYTE: 260.33 CELLS/uL
  ABSOLUTE SEGMENTED NEUTROPHIL: 1188.33 CELLS/uL
  BASOPHIL: 0%
  EOSINOPHIL: 0.33%
  ERYTHROCYTE COUNT: 5.54 x10E6/uL
  HEMATOCRIT: 34.03%
  HEMOGLOBIN: 12.9 G/DL
  LEUKOCYTE COUNT: 12.03 x10E3/uL
  LYMPHOCYTE: 88%
  MEAN CORPUSCULAR HEMOGLOBIN: 23.27 pg
  MEAN CORPUSCULAR HEMOGLOBIN CONCENTRATION: 37.9 G/DL
  MEAN CORPUSCULAR VOLUME: 61.4 fL
  MONOCYTE: 2%
  NEUTROPHIL: 9.67%
  NUCLEATED RED BLOOD CELLS: 0 /100WBC
  PLATELET COUNT: 1320 x10E3/uL
  ALANINE AMINOTRANSFERASE: 44.67 u/L
  ALBUMIN: 4.2 G/DL
  ALKALINE PHOSPHATASE: 279.67 u/L
  ASPARTATE AMINOTRANSFERASE: 85.67 u/L
  BLOOD UREA NITROGEN: 17 mg/dL
  CARBON DIOXIDE: 25.67 mmol/L
  CHLORIDE: 105 MEQ/L
  CHOLESTEROL: 70 mg/dL
  CREATINE PHOSPHOKINASE: 220 u/L
  CREATININE: 0.18 mg/dL
  GLUCOSE: 163.33 mg/dL
  LACTATE DEHYDROGENASE: 160.67 u/L
  LIPASE: 9.33 u/L
  PHOSPHORUS: 12.57 mg/dL
  POTASSIUM: 6.4 MEQ/L
  SODIUM: 146.63 MEQ/L
  TOTAL BILIRUBIN: 0.2 mg/dL
  TOTAL PROTEIN: 5.87 G/DL
  URIC ACID: 2.37 mg/dL
